In data set [1] the test system is P-gp1, ABCC1, cleaved Caspase 3. The following applies: tumor tissues.
Data set [2] has as its system human ovarian carcinoma OVCAR3. The data set can be described thus: Tumor cell viability, MTT assay, OVCAR3. Type of data set: cell-based. The note with it: read-out: IC50 cytotoxicity of oxaliplatin. How it is done:
(§1) Tumor cell viability was measured using an MTT assay.

Another data set deals with DRG neurons. The data set can be described thus: Axonal growth of DRG neurons in microfluidic device.
For data set [3], the system named is intraepidermal nerve fibers, sciatic nerve small fibers, DRG neurons. In words: Histology and TEM of footpad, sciatic nerve and DRG of tumor bearing mice. Type of data set: in vivo, mouse. An excerpt: Intraepidermal nerve fibers (IENFs) are sensory nerves that innervate dermis and epidermis. […] Calcitonin gene-related peptide (CGRP) DRG neurons are primary sensory neurons encoding heat and cold perception.

Data set [4] relates to miR-15b, miR-26a, miR-125b. The note with it: tumor tissues.
In data set [5] the test system is human colon carcinoma HCT-116. In words: Tumor cell viability, MTT assay, HCT-116. Type of data set: cell-based. The following applies: read-out: IC50 cytotoxicity of oxaliplatin. How it is done: as §1
For data set [6] the following is noted: one randomized trial; cited from earlier work.
For data set [7] the following is noted: in vivo; cited from earlier work.
The mark [8] stands for this setting: double immunofluorescent analysis.

Like-named read-outs stand apart in the source and are kept apart here.

On to `O=C1[O][Pt]2([NH][C@@H]3CCCC[C@H]3[NH]2)[O]C1=O` [Oxaliplatin], for which, in data set [1], the “protein level of ABCC1” value is listed as “increased”. In data set [1], the “protein level of P-gp1” value was “increased”. The IC50 in data set [2] (OVCAR3, with CEC derived exosomes (3×10^2 exosomes)) is 2.3 ± 0.1 µM; in data set [2] (OVCAR3, without CEC derived exosomes), 6.5 ± 1.1 µM; with DRG neurons (read-out: Half Maximal Inhibitory Concentration, IC50, growth of axons, oxaliplatin applied into the axonal compartment, 24 h), 0.0091 µM; in data set [5] (HCT-116, with CEC derived exosomes (3×10^2 exosomes)), 6.9 ± 1 µM; in data set [5] (HCT-116, without CEC derived exosomes), 16.1 ± 2.1 µM. In the data set on DRG neurons (oxaliplatin 3.6 nM (reduced concentration, IRF of 2.5)), this molecule displayed an axonal growth inhibited of 27%. The molecule further returned an axonal growth suppressed in the data set with DRG neurons (oxaliplatin 9.1 nM (regular dose)) of 50%. Also, the “IEFN density assayed by the number of PGP9.5 positive fibers” value in data set [3] (dermal tissues of tumor bearing mice) is given as “significantly reduced”. Besides, the “diameters of CGRP positive DRG neurons” value in data set [3] (setting [8]) is “selectively reduced”. The “diameters of NF200 positive DRG neurons” value in data set [3] (setting [8]) is “reduced diameters of CGRP, but not NF200 positive neurons”. For the same molecule, the miR-15b level entry in data set [4] is listed as “significantly reduced”. Besides, in data set [4], the miR-26a level entry is “significantly reduced”.
Turning to `CNCCC=C1c2ccccc2CCc2ccccc21` [nortriptyline], in data set [6], the “therapy of CIPN symptoms” value is on record as “ineffective”.
For the molecule `Cc1c(C)c2c(c(C)c1O)CC[C@@](C)(CCC[C@H](C)CCC[C@H](C)CCCC(C)C)O2` [α-tocopherol], in data set [7], the “antineuropathic effect on oxaliplatin-induced behavioral alterations” value is on record as “about 50%”.
